From article PMC5041982, “Small-molecule inhibition of STAT3 in radioresistant head and neck squamous cell carcinoma” (Oncotarget, 2016)
Like-named read-outs stand apart in the source and are kept apart here.

What was measured:
[1] = test system: UM-SCC-17B cells; assay: Anchorage dependent growth (MTT); type: cell-based; conditions: Homo sapiens, 48 hrs
Method: GAPDH-normalized pSTAT3 or pSTAT1 values were divided by that for untreated cells and expressed in percentage. These values were plotted as a function of Log [M] compound, and IC50 values calculated using GraphPad. […] Viable cells quantitated using MTT. Relative % viability was measured by (viability after any treatment ÷ viability of untreated cells × 100) and plotted as a function of Log [M] […] C. […] Representative curves are shown.
Cells were cultured in triplicates in complete DMEM ± drug, in ultra-low attachment 96 well plates for 72 hrs or cell-culture treated plates for 48 hrs and viable cells were quantitated using MTT. Optical density (OD) was measured at 590 nm using a 96-well multi-scanner (EL-800 universal microplate reader, BioTek Inc, VT, USA). Relative % viability (viability after any treatment ÷ viability of untreated cells × 100) was plotted along Y-axis. At least 2 replicates experiments were performed and were used for IC50 calculation using GraphPad software.

[2] = test system: STAT3/1 regulated genes; assay: RNA-seq of UM-SCC-17B tumor xenografts; type: in vivo; conditions: UM-SCC-17B xenografts, nude mice

## COc1ccc(S(=O)(=O)Nc2cc(-c3c(O)ccc4ccccc34)c(O)c3ccccc23)cc1 [Compound C188-9]
[1]; mean, read-out: Anchorage dependent growth (MTT) IC50
  IC50: 3.2 ± 0.6 µM
[1]; Figure 4B, read-out: Anchorage Dependent growth IC50, representative experiment
  IC50: 2.7 µM
[2]
  Fold Change, ADM: 1.8
  Fold Change, AKAP12: 2.9
  Fold Change, ALDH3A1: 2.6
  Fold Change, ANPEP: 3.7
  Fold Change, ATF3: 1.9
  Fold Change, BATF2: −2.1
  Fold Change, CALML3: −1.7
  Fold Change, CCL2: 5.1
  Fold Change, CCL20: 2.1
  Fold Change, CCNA1: −2.3
  Fold Change, CCND3: −1.6
  Fold Change, CLU: −1.7
  Fold Change, CMPK2: −2.1
  Fold Change, COL5A1: 1.7
  Fold Change, COL16A1: 1.8
  Fold Change, CXCL2: 2.9
  Fold Change, CXCL3: 2.6
  Fold Change, CYP1B1: 2.0
  Fold Change, DDX58: −1.7
  Fold Change, DYNC1H1: 1.5
  Fold Change, EGR1: 2.0
  Fold Change, EPSTI1: −2.2
  Fold Change, EREG: 1.8
  Fold Change, FOS: 2.0
  Fold Change, FOSB: 1.9
  Fold Change, GBP1: −1.7
  Fold Change, HERC5: −1.7
  Fold Change, HERC6: −1.6
  Fold Change, HK2: 1.6
  Fold Change, HSPG2: 1.5
  Fold Change, IER3: 2.0
  Fold Change, IFI6: −2.1
  Fold Change, IFI27: −1.7
  Fold Change, IFI35: −1.9
  Fold Change, IFI44: −1.7
  Fold Change, IFI44L: −2.3
  Fold Change, IFIT1: −2.5
  Fold Change, IFIT2: −2.2
  Fold Change, IFIT3: −2.5
  Fold Change, IFIT5: −1.6
  Fold Change, IFITM1: −1.5
  Fold Change, IFITM3: −1.5
  Fold Change, IGFBP3: 3.3
  Fold Change, IRF7: −1.7
  Fold Change, ISG15: −2.3
  Fold Change, KRT15: −2.1
  Fold Change, LY6E: −1.5
  Fold Change, MMP10: −1.7
  Fold Change, MX1: −1.9
  Fold Change, MX2: −1.8
  Fold Change, NAV1: 1.6
  Fold Change, NEDD9: 1.9
  Fold Change, NNMT: −2.3
  Fold Change, NOTCH4: 1.8
  Fold Change, NPTX2: 6.5
  Fold Change, NR4A2: 1.8
  Fold Change, NRP2: 1.9
  Fold Change, OAS1: −2.1
  Fold Change, OAS2: −1.8
  Fold Change, OASL: −2.6
  Fold Change, PCDH17: −3.7
  Fold Change, PDK1: 1.7
  Fold Change, PHLDA1: 1.8
  Fold Change, PLSCR1: −1.8
  Fold Change, PSMB9: −1.6
  Fold Change, PTGS2: 4.4
  Fold Change, SAMD9: −1.7
  Fold Change, SCARA3: −1.8
  Fold Change, SERPINB3: −1.6
  Fold Change, SERTAD2: 1.6
  Fold Change, SFRP1: −2.6
  Fold Change, SLC2A1: 1.7
  Fold Change, SLC2A3: 5.9
  Fold Change, SLC4A7: 1.8
  Fold Change, SLC7A11: 1.6
  Fold Change, SLPI: −1.6
  Fold Change, SMAD9: 2.7
  Fold Change, SP110: −1.6
  Fold Change, SPOCK3: −5.1
  Fold Change, STC1: 1.8
  Fold Change, TGFBR3: 1.5
  Fold Change, THBS1: 2.2
  Fold Change, TNC: 2.9
  Fold Change, TRIM22: −1.7
  Fold Change, TYMP: −1.7
  Fold Change, UBE2L6: −1.5
  Fold Change, UPK1B: −1.9
  Fold Change, USP18: −1.9
  Fold Change, VEGFA: 2.0
  Fold Change, VLDLR: 1.7
